These results are taken from patent US20100120778A1, “QUINOXALINE-BASED LXR MODULATORS” (Wyeth, priority 2008, published 2010).

Molecules are shown by their SMILES. Read-outs that look alike come from different tables or passages of the source.

One test addresses T1, human LXRβ (Homo sapiens, UniProt P55055).
T1 construct: biotin (biotinylated); made in house; host or cells: E. coli
T1 sequence (P55055 1-460): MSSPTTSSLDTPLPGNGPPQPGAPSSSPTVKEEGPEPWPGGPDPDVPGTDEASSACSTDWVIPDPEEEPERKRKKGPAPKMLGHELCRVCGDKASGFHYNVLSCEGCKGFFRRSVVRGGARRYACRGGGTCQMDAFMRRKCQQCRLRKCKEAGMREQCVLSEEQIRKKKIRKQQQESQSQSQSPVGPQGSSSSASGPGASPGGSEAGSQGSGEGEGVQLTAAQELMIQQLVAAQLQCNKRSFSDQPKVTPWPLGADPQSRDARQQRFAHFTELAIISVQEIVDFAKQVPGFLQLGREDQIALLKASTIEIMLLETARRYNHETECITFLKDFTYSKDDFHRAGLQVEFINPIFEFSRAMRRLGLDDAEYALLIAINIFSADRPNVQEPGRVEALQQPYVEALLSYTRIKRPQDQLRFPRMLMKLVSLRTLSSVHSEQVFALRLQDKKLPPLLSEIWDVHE
Put plainly: Ligand-binding test procedure for human LXRβ (3H T0901317 tracer, flash plates). The conditions noted are these: biotinylated hLXRβ, tracer 3H T0901317, +4° C. over night.

The target of a further test is T2, human LXRα (Homo sapiens, UniProt Q13133).
T2 construct: biotin (biotinylated); made in house; host or cells: E. coli
T2 sequence (Q13133 1-447): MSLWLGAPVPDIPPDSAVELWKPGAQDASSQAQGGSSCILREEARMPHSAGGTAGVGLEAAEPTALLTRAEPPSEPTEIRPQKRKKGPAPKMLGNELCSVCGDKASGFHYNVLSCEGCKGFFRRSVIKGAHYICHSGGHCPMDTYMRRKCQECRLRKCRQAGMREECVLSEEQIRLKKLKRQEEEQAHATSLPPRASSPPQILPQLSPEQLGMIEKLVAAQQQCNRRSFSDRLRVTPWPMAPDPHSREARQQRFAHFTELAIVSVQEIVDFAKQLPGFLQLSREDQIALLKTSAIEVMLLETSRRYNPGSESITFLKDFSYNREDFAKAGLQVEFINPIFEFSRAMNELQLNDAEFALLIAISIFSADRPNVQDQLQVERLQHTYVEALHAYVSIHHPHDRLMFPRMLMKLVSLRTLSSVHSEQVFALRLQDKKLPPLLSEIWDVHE
Put plainly: Ligand-binding test procedure for human LXRα (3H T0901317 tracer, flash plates). Conditions: biotinylated hLXRα, tracer 3H T0901317, +4° C. over night. How it is done: II. Ligand-Binding Test Procedure for Human LXRα.
Receptor source: E. coli extract from cells expressing biotinylated hLXRα. Extract was made in a similar buffer as above, but with 50 mM TRIS.
Washed streptavidin and coated flash plates with wash buffer. Diluted receptor extract to give Bmax˜4000 cpm and add to the wells. Wrapped the plates in aluminum foil and stored them at +4° C. over night.
Made a dilution series in DMSO of the test ligands. Made a 5 nM solution of the radioactive tracer in buffer. Mixed 250 μl diluted tracer with 5 μl of the test ligand from each concentration of the dilution series. Washed the receptor-coated flash plates. Added 200 μl per well of the ligand/radiolabel mixture to the receptor-coated flash plates. Wrapped the plates in aluminum foil and incubate at +4° C. over night.
Aspirated wells, and wash the flashed plates. Sealed the plate. Measured the remaining radioactivity in the plate.

Test [1] concerns ABCA1 gene (regulation by LXR) in THP-1 cells. Put plainly: Quantitative analysis of ABCA1 gene regulation in THP-1 cells (real-time RT-PCR). The format is cell-based, human. The conditions noted are these: for Agonism ABCA1: LXR agonist reference at 1.0 uM as positive control; for EC50: Homo sapiens, read-out: EC50 ABCA1. The procedure:
III. Quantitative Analysis of ABCA1 Gene Regulation In THP-1 Cells. The compounds of formula (I) effect on the regulation of the ABCA1 gene was evaluated using the following procedure. Materials and Methods Cell culture: The THP-1 monocytic cell line (ATCC # TIB-202) was obtained from American Type Culture Collection (Manassas, Va.) and cultured in RPMI 1640 medium (Gibco, Carlsbad, Calif.) containing 10% FBS, 2 mM L-glutamine, and 55 uM beta-Mercaptoethanol (BME). […] Louis, Mo.) for three days to induce differentiation into adherent macrophages. Differentiated THP-1 cells were treated with test compounds or ligands dissolved in DMSO (Sigma, D-8779) in culture medium lacking phorbal ester. […] Dose response effects were measured in duplicate, in the range of 0.001 to 30 micromolar concentrations and treated cells were incubated for an additional 18 hrs prior to RNA isolation. Unstimulated cells treated with vehicle were included as negative controls on each plate. […] L., J. Med. Chem. (2000), 45:1963-1966.). Results of antagonist analysis are expressed as % antagonism and IC50 (in μM). RNA isolation and quantitation: Total cellular RNA was isolated from treated cells cultured in 96-well plates using PrepStation 6100 (Applied Biosystems, Foster City, Calif.), according to the manufacturer's recommendations. RNA was resuspended in ribonuclease-free water and stored at -70° C. prior to analysis. RNA concentrations were quantitated with RiboGreen test procedure, #R-11490 (Molecular Probes, Eugene, Oreg.). Gene expression analysis: Gene-specific mRNA quantitation was performed by real-time PCR with the Perkin Elmer Corp. chemistry on an ABI Prism 7700 Sequence detection system (Applied Biosystems, Foster City, Calif.) according to the manufacturer's instructions. Samples (50-100 ng) of total RNA were assayed in duplicate or triplicate in 50 μl reactions using one-step RT-PCR and the standard curve method to estimate specific mRNA concentrations. Sequences of gene-specific primer and probe sets were designed with Primer Express Software (Applied Biosystems, Foster City, Calif.). The human ABCA1 primer and probe sequences are: forward, [NT], reverse, [NT], and probe, 6[…] and PCR reactions were performed according to PE Applied Biosystem's protocol for Taqman Gold RT-PCR or Qiagen's protocol for Quantitect probe RT-PCR. Relative levels of ABCA1 mRNA are normalized using GAPDH mRNA or 18S rRNA probe/primer sets purchased commercially (Applied Biosystems, Foster City, Calif.). Statistics: Mean, standard deviation and statistical significance of duplicate evaluations of RNA samples were assessed using ANOVA, one-way analysis of variance using SAS analysis.
For orientation: Real-time PCR tracks product formation cycle by cycle.

Where [2] appears, read: Gene regulation by LXR (THP1), differentiated THP-1 cells, 18 hrs.
The mark [3] stands for this setting: Gene regulation by LXR (THP1), differentiated THP-1 cells, 18 hrs, ABCA1 mRNA.

In the case of `Cc1nc2c(C(F)(F)F)cccc2nc1-c1cc(Oc2cccc(S(=O)(=O)CCCC#N)c2)ccc1Cl` [Example 77, 4-[(3-{4-chloro-3-[3-methyl-5-(trifluoromethyl)quinoxalin-2-yl]phenoxy}phenyl)sulfonyl]-butanenitrile], the half-maximal inhibitory concentration (IC50) at human LXRβ was determined as 128 nM; on human LXRα, 405 nM. Besides, the “Agonism ABCA1” value in test [1] (setting [2]) turned out to be 45%. Further, in test [1] (setting [3]), the EC50 worked out at 4420 nM.
Consider `CNS(=O)(=O)c1cccc(-c2ccc(-c3nc4cccc(C(F)(F)F)c4nc3C)cc2)c1` [Example 53, N-methyl-4′-[3-methyl-5-(trifluoromethyl)quinoxalin-2-yl]biphenyl-3-sulfonamide], for which, at human LXRα, the IC50 was > 1000 nM. The “Agonism ABCA1” value in test [1] (setting [2]) turned out to be 55%. For the same molecule, the half-maximal effective concentration (EC50) in test [1] (THP-1, 18 h) amounted to 1400 nM.
For `CCS(=O)(=O)c1cccc(-c2ccc(-c3nc4cccc(C(F)(F)F)c4nc3C)cc2)c1` [Example 31, 2-[3′-(ethylsulfonyl)biphenyl-4-yl]-3-methyl-5-(trifluoromethyl)quinoxaline], the IC50 on human LXRα was 265 nM. Besides, the “Agonism ABCA1” value in test [1] (setting [2]) is reported as 65%. The EC50 in test [1] (THP-1, 18 h) was determined as 890 nM.
As for `Cc1nc2c(C(F)(F)F)cccc2nc1-c1ccc(-c2cccc(S(C)(=O)=O)c2)cc1` [Example 1, 3-methyl-2-[3′-(methylsulfonyl)biphenyl-4-yl]-5-(trifluoromethyl)quinoxaline], the half-maximal inhibitory concentration (IC50) was determined as 49 nM at human LXRβ and 752 nM on human LXRα. Moreover, the “Agonism ABCA1” value in test [1] (setting [2]) is 79%. For the same molecule, in test [1] (setting [3]), the EC50 amounted to 1090 nM.
Regarding `CCS(=O)(=O)c1cccc(Oc2ccc(Cl)c(-c3nc4c(C(F)(F)F)cccc4nc3C)c2)c1` [Example 61, 3-{2-chloro-5-[3-(ethylsulfonyl)phenoxy]phenyl}-2-methyl-5-(trifluoromethyl)quinoxaline], the IC50 at human LXRβ is 29 nM; on human LXRα, 366 nM.
As to `Cc1nc2cccc(C(F)(F)F)c2nc1-c1cccc(Oc2cccc(S(C)(=O)=O)c2)c1` [Example 3, 2-methyl-3-{3-[3-(methylsulfonyl)phenoxy]phenyl}-5-(trifluoromethyl)quinoxaline], the half-inhibitory concentration (IC50) stood at 251 nM at human LXRβ and 1290 nM on human LXRα.
As for `CCS(=O)(=O)c1cccc(-c2ccc(Oc3nc4cccc(Cl)c4nc3C)cc2)c1` [Example 83, 5-chloro-2-{[3′-(ethylsulfonyl)biphenyl-4-yl]oxy}-3-methylquinoxaline], the IC50 on human LXRβ and at human LXRα was > 1000 nM each time.
Turning to `Cc1nc2cccc(Cl)c2nc1-c1cccc(Oc2cccc(S(C)(=O)=O)c2)c1` [Example 10, 5-chloro-2-methyl-3-{3-[3-(methylsulfonyl)phenoxy]phenyl}quinoxaline], the results for the IC50 at human LXRβ and at human LXRα were 2210 nM and > 1000 nM, respectively.

In general, IC50 refers to the concentration that gives 50% inhibition. Broadly, the EC50 is the midpoint of the concentration-response curve.
